Among the data in patent publication US12570695B2, “Bicyclic peptide ligands specific for EphA2” (priority 2019, dated 2026) are Ki values, retold here.

Each structure is given as a SMILES string. Starred links: 1 amine or outer side, 2 acyl side, 3 side chain; linkers in the order of their positions; H or OH if unused. Positions of bridges follow the written chain, without caps; N, C: chain ends. Non-standard residues stand in square brackets, D forms with d. Residues, ends and D or L forms follow the SMILES beside them. TATA = O=C(CC[*:1])N1CN(C(=O)CC[*:2])CN(C(=O)CC[*:3])C1; Dip = N[C@H](C(=O)O)C(c1ccccc1)c1ccccc1; 1Nal = N[C@@H](Cc1cccc2ccccc12)C(=O)O; Hyp = O=C(O)[C@@H]1C[C@@H](O)CN1; hArg = N=C(N)NCCCC[C@H](N)C(=O)O; Cba = N[C@@H](CC1CCC1)C(=O)O

The assay deals with human EphA2 (Homo sapiens, UniProt P29317). Kind of assay: biochemical.
Chain of human EphA2 (P29317 24-976): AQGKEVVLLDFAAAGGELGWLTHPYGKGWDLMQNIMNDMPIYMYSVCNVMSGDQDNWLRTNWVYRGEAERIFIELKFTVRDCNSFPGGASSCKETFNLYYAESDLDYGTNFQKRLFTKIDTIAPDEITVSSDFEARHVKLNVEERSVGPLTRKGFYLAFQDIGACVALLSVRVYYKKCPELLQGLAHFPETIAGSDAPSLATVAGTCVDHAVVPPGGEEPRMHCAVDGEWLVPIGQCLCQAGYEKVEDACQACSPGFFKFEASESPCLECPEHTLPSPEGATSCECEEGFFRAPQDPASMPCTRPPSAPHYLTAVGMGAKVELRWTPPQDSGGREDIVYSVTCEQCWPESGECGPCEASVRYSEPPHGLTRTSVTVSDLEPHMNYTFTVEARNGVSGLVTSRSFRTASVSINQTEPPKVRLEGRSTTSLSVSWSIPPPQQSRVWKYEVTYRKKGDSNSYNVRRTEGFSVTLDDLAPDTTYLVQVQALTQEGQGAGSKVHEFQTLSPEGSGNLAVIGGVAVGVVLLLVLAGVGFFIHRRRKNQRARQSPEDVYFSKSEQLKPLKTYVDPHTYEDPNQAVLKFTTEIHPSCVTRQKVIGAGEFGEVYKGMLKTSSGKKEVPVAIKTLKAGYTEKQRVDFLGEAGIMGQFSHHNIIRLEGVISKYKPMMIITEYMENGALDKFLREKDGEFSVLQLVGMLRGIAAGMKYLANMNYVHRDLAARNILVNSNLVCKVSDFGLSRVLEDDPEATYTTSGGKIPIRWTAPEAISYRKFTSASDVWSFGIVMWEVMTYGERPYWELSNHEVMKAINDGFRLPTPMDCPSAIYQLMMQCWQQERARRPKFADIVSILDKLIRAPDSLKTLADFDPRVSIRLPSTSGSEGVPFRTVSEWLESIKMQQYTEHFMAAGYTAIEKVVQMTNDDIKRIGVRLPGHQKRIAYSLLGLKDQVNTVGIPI

Protocol: Peptides without a fluorescent tag were tested in competition with a peptide with a fluorescent tag and a known Kd.
Peptides were diluted to an appropriate concentration in assay buffer as described in the direct binding assay with a maximum of 5% DMSO, then serially diluted 1 in 2. […] Measurements were conducted, however the gain was determined prior to the first measurement. Data analysis was in Systat Sigmaplot version 12.0 where the mP values were fit to a user defined cubic equation to generate a Ki value:
“Lig”, “KLig” and “Prot” were all defined values relating to: fluorescent peptide concentration, the Kd of the fluorescent peptide and EphA2 concentration respectively.

As a reminder, the Ki is the equilibrium dissociation constant of an inhibitor or competing ligand from its target. The low end stands for higher affinity, the high end for lower affinity. Turning to `CC(C)C[C@@H]1NC(=O)[C@@H]2CSCCC(=O)N3CN(CN(C3)C(=O)CCSC[C@H](NC(=O)[C@H](CC(=O)O)NC(=O)[C@H](CCCCNC(=N)N)NC(=O)[C@H](C)N)C(=O)N3C[C@H](O)C[C@H]3C(=O)N[C@@H](CC(C)C)C(=O)N[C@@H](C(C)C)C(=O)N[C@@H](CC(N)=O)C(=O)N3CCC[C@H]3C(=O)N[C@@H](CC(C)C)C(=O)N2)C(=O)CCSC[C@@H](C(N)=O)NC(=O)[C@H](CCCCNC(=N)N)NC(=O)[C@H](Cc2c[nH]c3ccccc23)NC(=O)[C@@H](CC(=O)O)NC(=O)[C@@H]2CCCN2C(=O)[C@H](CCC(=O)O)NC1=O` [BCY12854, A-[HArg]-D-Ci[HyP]LVNPLCiiLEP[dD]W[HArg]Ciii] (H-A[hArg]DC[Hyp]LVNPLCLEP[dD]W[hArg]C-NH2; linker 4-11-18 via TATA; N-terminus and C-terminus assumed), the Ki came out at 9.34 nM. To `CC(C)C[C@@H]1NC(=O)[C@@H]2CSCCC(=O)N3CN(CN(C3)C(=O)CCSC[C@H](NC(=O)[C@H](CC(=O)O)NC(=O)[C@H](CCCCNC(=N)N)NC(=O)[C@H](C)N)C(=O)N3C[C@H](O)C[C@H]3C(=O)N[C@@H](CC(C)C)C(=O)N[C@@H](C(C)C)C(=O)N[C@@H](CC(N)=O)C(=O)N3CCC[C@H]3C(=O)N[C@@H](CC(C)C)C(=O)N2)C(=O)CCSC[C@@H](C(N)=O)NC(=O)[C@H]([C@@H](C)O)NC(=O)[C@H](Cc2c[nH]c3ccccc23)NC(=O)[C@@H](CC(=O)O)NC(=O)[C@@H]2CCCN2C(=O)[C@H](Cc2c[nH]cn2)NC1=O` [BCY12855, A-[HArg]-D-Ci[HyP]LVNPLCiiLHP[dD]WTCiii] (H-A[hArg]DC[Hyp]LVNPLCLHP[dD]WTC-NH2; linker 4-11-18 via TATA; N-terminus and C-terminus assumed) belongs 5.55 nM. To `CC(C)C[C@@H]1NC(=O)[C@@H]2CSCCC(=O)N3CN(CN(C3)C(=O)CCSC[C@H](NC(=O)[C@H](CC(=O)O)NC(=O)[C@H](CCCCNC(=N)N)NC(=O)[C@H](C)N)C(=O)N3C[C@H](O)C[C@H]3C(=O)N[C@@H](CC(C)C)C(=O)N[C@@H](C(C)C)C(=O)N[C@@H](CC(N)=O)C(=O)N3CCC[C@H]3C(=O)N[C@@H](CC(C)C)C(=O)N2)C(=O)CCSC[C@@H](C(=O)N[C@H](C)C(N)=O)NC(=O)[C@H]([C@@H](C)O)NC(=O)[C@H](Cc2c[nH]c3ccccc23)NC(=O)[C@@H](CC(=O)O)NC(=O)[C@@H]2CCCN2C(=O)[C@H](CCC(=O)O)NC1=O` [BCY12857, A-[HArg]-D-Ci[HyP]LVNPLCiiLEP[dD]WTCiii[dA]] (H-A[hArg]DC[Hyp]LVNPLCLEP[dD]WTC[dA]-NH2; linker 4-11-18 via TATA; N-terminus and C-terminus assumed) belongs 16 nM; to `CC(C)C[C@@H]1NC(=O)[C@@H]2CSCCC(=O)N3CN(CN(C3)C(=O)CCSC[C@H](N)C(=O)N3C[C@H](O)C[C@H]3C(=O)N[C@@H](CC(C)C)C(=O)N[C@@H](C(C)C)C(=O)N[C@@H](CC(N)=O)C(=O)N3CCC[C@H]3C(=O)N[C@@H](CC(C)C)C(=O)N2)C(=O)CCSC[C@@H](C(N)=O)NC(=O)[C@H]([C@@H](C)O)NC(=O)[C@H](Cc2c[nH]c3ccccc23)NC(=O)[C@@H](CC(=O)O)NC(=O)[C@@H]2CCCN2C(=O)[C@H](C(c2ccccc2)c2ccccc2)NC1=O` [BCY12860, Ci[HyP]LVNPLCiiL[3,3-DPA]P[dD]WTCiii] (H-C[Hyp]LVNPLCL[Dip]P[dD]WTC-NH2; linker 1-8-15 via TATA; N-terminus and C-terminus assumed), 0.66 nM. The same measure for `CC(C)C[C@@H]1NC(=O)[C@@H]2CSCCC(=O)N3CN(CN(C3)C(=O)CCSC[C@H](N)C(=O)N3C[C@H](O)C[C@H]3C(=O)N[C@@H](CC(C)C)C(=O)N[C@@H](C(C)C)C(=O)N[C@@H](CC(N)=O)C(=O)N3CCC[C@H]3C(=O)N[C@@H](CC(C)C)C(=O)N2)C(=O)CCSC[C@@H](C(=O)N[C@H](C)C(N)=O)NC(=O)[C@H]([C@@H](C)O)NC(=O)[C@H](Cc2c[nH]c3ccccc23)NC(=O)[C@@H](CC(=O)O)NC(=O)[C@@H]2CCCN2C(=O)[C@H](CCC(=O)O)NC1=O` [BCY12861, Ci[HyP]LVNPLCiiLEP[dD]WTCiii[dA]] (H-C[Hyp]LVNPLCLEP[dD]WTC[dA]-NH2; linker 1-8-15 via TATA; N-terminus and C-terminus assumed): 21.7 nM; for `CC(C)C[C@@H]1NC(=O)[C@@H]2CSCCC(=O)N3CN(CN(C3)C(=O)CCSC[C@H](NC(=O)[C@H](CC(=O)O)NC(=O)[C@H](CCCCNC(=N)N)NC(=O)[C@H](C)N)C(=O)N3C[C@H](O)C[C@H]3C(=O)N[C@@H](CC3CCC3)C(=O)N[C@@H](C(C)C)C(=O)N[C@@H](CC(N)=O)C(=O)N3CCC[C@H]3C(=O)N[C@@H](CC(C)C)C(=O)N2)C(=O)CCSC[C@@H](C(N)=O)NC(=O)[C@H](CCCCNC(=N)N)NC(=O)[C@H](Cc2c[nH]c3ccccc23)NC(=O)[C@@H](CC(=O)O)NC(=O)[C@@H]2CCCN2C(=O)[C@H](Cc2c[nH]cn2)NC1=O` [BCY12862, A-[HArg]-D-Ci[HyP][Cba]VNPLCiiLHP[dD]W[HArg]Ciii] (H-A[hArg]DC[Hyp][Cba]VNPLCLHP[dD]W[hArg]C-NH2; linker 4-11-18 via TATA; N-terminus and C-terminus assumed): 1.22 nM.

In the case of `CC(C)C[C@@H]1NC(=O)[C@@H]2CSCCC(=O)N3CN(CN(C3)C(=O)CCSC[C@H](NC(=O)[C@H](CC(=O)O)NC(=O)[C@H](CCCCNC(=N)N)NC(=O)[C@@H](C)N)C(=O)N3C[C@H](O)C[C@H]3C(=O)N[C@@H](CC3CCC3)C(=O)N[C@@H](C(C)C)C(=O)N[C@@H](CC(N)=O)C(=O)N3CCC[C@H]3C(=O)N[C@@H](CC(C)C)C(=O)N2)C(=O)CCSC[C@@H](C(=O)N[C@H](C)C(N)=O)NC(=O)[C@H]([C@@H](C)O)NC(=O)[C@H](Cc2c[nH]c3ccccc23)NC(=O)[C@@H](CC(=O)O)NC(=O)[C@@H]2CCCN2C(=O)[C@H](CCC(=O)O)NC1=O` [BCY12864, [dA]-[HArg]-D-Ci[HyP][Cba]VNPLCiiLEP[dD]WTCiii-[dA]] (H-[dA][hArg]DC[Hyp][Cba]VNPLCLEP[dD]WTC[dA]-NH2; linker 4-11-18 via TATA; N-terminus and C-terminus assumed), the Ki worked out at 9.29 nM. For the compound `CC(C)C[C@@H]1NC(=O)[C@@H]2CSCCC(=O)N3CN(CN(C3)C(=O)CCSC[C@H](NC(=O)[C@H](CC(=O)O)NC(=O)[C@H](CCCCNC(=N)N)NC(=O)[C@H](C)N)C(=O)N3C[C@H](O)C[C@H]3C(=O)N[C@@H](CC(C)C)C(=O)N[C@@H](C(C)C)C(=O)N[C@@H](CC(N)=O)C(=O)N3CCC[C@H]3C(=O)N[C@@H](CC(C)C)C(=O)N2)C(=O)CCSC[C@@H](C(N)=O)NC(=O)[C@H](CCCCNC(=N)N)NC(=O)[C@H](Cc2c[nH]c3ccccc23)NC(=O)[C@@H](CC(=O)O)NC(=O)[C@@H]2CCCN2C(=O)[C@H](Cc2cccc3ccccc23)NC1=O` [BCY13117, A-[HArg]-D-Ci[HyP]LVNPLCiiL[1Nal]P[dD]W[HArg]Ciii] (H-A[hArg]DC[Hyp]LVNPLCL[1Nal]P[dD]W[hArg]C-NH2; linker 4-11-18 via TATA; N-terminus and C-terminus assumed), the Ki is 1.12 nM. Compared with the last compound, the Ki is about 8.3-fold lower.
